Measurements as given in patent US20060069132A1, “Azolecarboxamide herbicides” (priority 2004, published 2006).

Experiments:
large crabgrass = test: Test B pre-/postemergence herbicide test; assay type: in vivo, Digitaria sanguinalis; conditions: for Crabgrass, Large plant response rating: postemergence, scale 0 (no effect) to 100 (complete control)
Method in brief: (§1)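 Response was scored visually 13 to 15 days after treatment against untreated greenhouse controls, 0 meaning no effect and 100 complete control. Formulations (solvent mixture plus surfactant) went onto soil after planting, onto foliage of 1- to 4-leaf plants, and onto 2-leaf plants in a flooded paddy set including rice and barnyardgrass.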

rice [1] = test: Test B pre-/postemergence herbicide test; assay type: in vivo, Oryza sativa; conditions: 0 = no effect, 100 = complete control, preemergence
Method in brief: as §1

[2] = test system: small flower umbrella sedge; test: Test B flooded paddy test; assay type: in vivo, Cyperus difformis; conditions: 1000 g ai/ha, scale 0 to 100 (0 no effect, 100 complete control)
Method in brief: (§2)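 Paddy species grown to the 2-leaf stage under flooding; blackgrass sprayed postemergence at 2–18 cm (1- to 4-leaf stage). Plants kept in a greenhouse for 13 to 15 days, then visually rated against controls on 0 (no effect) to 100 (complete control).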

blackgrass = test: Test B postemergence herbicide test; assay type: in vivo, Alopecurus myosuroides; conditions: postemergence, visual rating, scale 0 (no effect) to 100 (complete control)
Method in brief: as §2

[3] = test system: smallflower umbrella sedge; test: Test C flooded paddy test; assay type: in vivo, Cyperus difformis
Surinam grass = test: Test B pre-/postemergence herbicide test; assay type: in vivo, Urochloa decumbens; conditions: for Surinam Grass plant response rating: postemergence, scale 0 (no effect) to 100 (complete control)
Method in brief: as §1

corn = test: Test B pre-/postemergence herbicide test; assay type: in vivo, Zea mays; conditions: for Corn plant response rating: postemergence, scale 0 (no effect) to 100 (complete control)
Method in brief: as §1

ducksalad [4] = test: Test B flooded paddy test; assay type: in vivo, Heteranthera limosa; conditions: 1000 g ai/ha, scale 0 to 100 (0 no effect, 100 complete control)
Method in brief: as §2

ducksalad [5] = test: Test C flooded paddy test; assay type: in vivo, Heteranthera limosa
wheat = test: Test B postemergence herbicide test; assay type: in vivo, Triticum aestivum; parameters: key to Wheat plant response rating: 0 = no effect, 100 = complete control; conditions: postemergence, visual rating, scale 0 (no effect) to 100 (complete control)
Method in brief: (§3)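 Postemergence plants were sprayed with formulated test chemicals at 2 to 18 cm height (1- to 4-leaf stage); paddy species were grown to the 2-leaf stage. After 13 to 15 days in a greenhouse, injury was rated visually against untreated controls on a 0–100 scale (0 = no effect, 100 = complete control).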

morningglory = test: Test B pre-/postemergence herbicide test; assay type: in vivo, Ipomoea coccinea; conditions: for Morningglory plant response rating: postemergence, scale 0 (no effect) to 100 (complete control)
Method in brief: (§4)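 Test chemicals in a non-phytotoxic solvent mixture with surfactant were applied preemergence to seeded species and postemergence to plants 2-18 cm tall (1- to 4-leaf stage); rice and barnyardgrass were also tested in a flooded paddy at the 2-leaf stage. Visual rating versus controls after 13-15 days in greenhouse, scale 0 (no effect) to 100 (complete control).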

velvetleaf = test: Test B pre-/postemergence herbicide test; assay type: in vivo, Abutilon theophrasti; conditions: for Velvetleaf plant response rating: postemergence, scale 0 (no effect) to 100 (complete control)
Method in brief: as §1

barnyardgrass [6] = test: Test C flooded paddy test; assay type: in vivo, Echinochloa crus-galli
Method in brief: (§5)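 Postemergence sprays applied to plants 2 to 18 cm tall (1- to 4-leaf stage); paddy species grown to 2-leaf stage under flooding. After 12 to 14 days in greenhouse, visual rating versus untreated controls on 0–100 scale (0 no effect, 100 complete control).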

rice [7] = test: Test B flooded paddy test; assay type: in vivo, Oryza sativa; conditions: 1000 g ai/ha, scale 0 to 100 (0 no effect, 100 complete control)
Method in brief: as §3

barnyardgrass [8] = test: Test B pre-/postemergence herbicide test; assay type: in vivo, Echinochloa crus-galli; conditions: 0 = no effect, 100 = complete control, preemergence
Method in brief: as §4

giant foxtail = test: Test B pre-/postemergence herbicide test; assay type: in vivo, Setaria faberi; conditions: for Foxtail, Giant plant response rating: postemergence, scale 0 (no effect) to 100 (complete control)
Method in brief: as §1

lambsquarters = test: Test B pre-/postemergence herbicide test; assay type: in vivo, Chenopodium album; conditions: for Lambsquarters plant response rating: postemergence, scale 0 (no effect) to 100 (complete control)
Method in brief: as §1

cocklebur = test: Test B pre-/postemergence herbicide test; assay type: in vivo, Xanthium strumarium; conditions: for Cocklebur plant response rating: postemergence, scale 0 (no effect) to 100 (complete control)
Method in brief: as §4

pigweed = test: Test B pre-/postemergence herbicide test; assay type: in vivo, Amaranthus retroflexus
Method in brief: as §1

rice [9] = test: Test C flooded paddy test; assay type: in vivo, Oryza sativa
Method in brief: as §5

wild oat = test: Test B postemergence herbicide test; assay type: in vivo, Avena fatua; conditions: postemergence, visual rating, scale 0 (no effect) to 100 (complete control)
Method in brief: as §3

barnyardgrass [10] = test: Test B flooded paddy test; assay type: in vivo, Echinochloa crus-galli; conditions: 1000 g ai/ha, scale 0 to 100 (0 no effect, 100 complete control)
Method in brief: as §2

[11] = 125 g ai/ha, 0 = no effect, 100 = complete control, preemergence
[12] = 500 g ai/ha, visual rating, 0 = no effect, 100 = complete control, preemergence
[13] = 62 g ai/ha, scale 0 to 100 (0 no effect, 100 complete control)
[14] = 125 g ai/ha, scale 0 to 100 (0 no effect, 100 complete control)
[15] = 250 g ai/ha, scale of 0 to 100, 0 is no effect, 100 is complete control
[16] = 500 g ai/ha, visual rating after 12 to 14 days, scale 0 to 100 (0 no effect, 100 complete control)

**Q.** What does the source list for `CCc1cn(C(C)(C)C)nc1C(=O)Nc1cc(C(=O)N(C)C)ccn1` [Compound 232]?
**A.** Crabgrass, Large plant response rating (0 to 100 scale) (large crabgrass; [11]): 60; Plant response rating, Crabgrass, Large (large crabgrass; [12]): 100; Crabgrass, Large plant response rating (large crabgrass; 125 g ai/ha, visual rating): 10; Crabgrass, Large plant response rating (large crabgrass; 500 g ai/ha, visual rating): 20; Rice plant response rating (0 to 100 scale) (rice [1]; 125 g ai/ha): 10; Plant response rating, Rice (rice [1]; 500 g ai/ha, visual rating): 50; Sedge, Umbrella plant response rating [2]: 90; Blackgrass plant response rating (blackgrass; 125 g ai/ha): 0; Blackgrass plant response rating (blackgrass; 500 g ai/ha): 0; Sedge, Umbrella plant response rating [3, 13]: 0; Sedge, Umbrella plant response rating [3, 14]: 35; Sedge, Umbrella plant response rating [3, 15]: 55; Plant response rating, Sedge, Umbrella [3, 16]: 85; Surinam Grass plant response rating (0 to 100 scale) (Surinam grass; [11]): 0; Plant response rating, Surinam Grass (Surinam grass; [12]): 30; Surinam Grass plant response rating (Surinam grass; 125 g ai/ha, visual rating): 10; Surinam Grass plant response rating (Surinam grass; 500 g ai/ha, visual rating): 20; Corn plant response rating (0 to 100 scale) (corn; [11]): 0; Plant response rating, Corn (corn; [12]): 0; Corn plant response rating (corn; 125 g ai/ha, visual rating): 10; Corn plant response rating (corn; 500 g ai/ha, visual rating): 20; Ducksalad plant response rating (ducksalad [4]): 80; Ducksalad plant response rating (ducksalad [5]; [13]): 0; Ducksalad plant response rating (ducksalad [5]; [14]): 0; Ducksalad plant response rating (ducksalad [5]; [15]): 30; Plant response rating, Ducksalad (ducksalad [5]; [16]): 80; Wheat plant response rating (wheat; 125 g ai/ha): 0; Wheat plant response rating (wheat; 500 g ai/ha): 0; Morningglory plant response rating (0 to 100 scale) (morningglory; [11]): 10; Plant response rating, Morningglory (morningglory; [12]): 20; Morningglory plant response rating (morningglory; 125 g ai/ha, visual rating): 30; Morningglory plant response rating (morningglory; 500 g ai/ha, visual rating): 70; Velvetleaf plant response rating (0 to 100 scale) (velvetleaf; [11]): 20; Plant response rating, Velvetleaf (velvetleaf; [12]): 40; Velvetleaf plant response rating (velvetleaf; 125 g ai/ha, visual rating): 30; Velvetleaf plant response rating (velvetleaf; 500 g ai/ha, visual rating): 40; Barnyardgrass plant response rating (barnyardgrass [6]; [13]): 0; Barnyardgrass plant response rating (barnyardgrass [6]; [14]): 0; Barnyardgrass plant response rating (barnyardgrass [6]; [15]): 0; Plant response rating, Barnyardgrass (barnyardgrass [6]; [16]): 15; Rice plant response rating (rice [7]): 50; Barnyardgrass plant response rating (0 to 100 scale) (barnyardgrass [8]; 125 g ai/ha): 20; Plant response rating, Barnyardgrass (barnyardgrass [8]; 500 g ai/ha, visual rating): 60; Foxtail, Giant plant response rating (0 to 100 scale) (giant foxtail; [11]): 0; Plant response rating, Foxtail, Giant (giant foxtail; [12]): 30; Foxtail, Giant plant response rating (giant foxtail; 125 g ai/ha, visual rating): 10; Foxtail, Giant plant response rating (giant foxtail; 500 g ai/ha, visual rating): 30; Lambsquarters plant response rating (0 to 100 scale) (lambsquarters; [11]): 80; Plant response rating, Lambsquarters (lambsquarters; [12]): 90; Lambsquarters plant response rating (lambsquarters; 125 g ai/ha, visual rating): 50; Lambsquarters plant response rating (lambsquarters; 500 g ai/ha, visual rating): 60; Cocklebur plant response rating (0 to 100 scale) (cocklebur; [11]): 0; Plant response rating, Cocklebur (cocklebur; [12]): 0; Cocklebur plant response rating (cocklebur; 125 g ai/ha, visual rating): 10; Cocklebur plant response rating (cocklebur; 500 g ai/ha, visual rating): 30; Pigweed plant response rating (0 to 100 scale) (pigweed; [11]): 90; Plant response rating, Pigweed (pigweed; [12]): 90; Pigweed plant response rating (pigweed; postemergence, 500 g ai/ha, visual rating, scale 0 (no effect) to 100 (complete control)): 40; Rice plant response rating (rice [9]; [13]): 0; Rice plant response rating (rice [9]; [14]): 20; Rice plant response rating (rice [9]; [15]): 35; Plant response rating, Rice (rice [9]; [16]): 60; Oat, Wild plant response rating (wild oat; 125 g ai/ha): 0; Oat, Wild plant response rating (wild oat; 500 g ai/ha): 0; Barnyardgrass plant response rating (barnyardgrass [10]): 40
